In the NIST ThermoML archive (doi:10.1016/j.jct.2015.12.005):
Several values for one entry are separate records, joined by “and”; a condition that tells them apart may be missing. Identical values can stand only once. ± gives the expanded uncertainty stated by the source.

Settings: for mass density: Vibrating tube method; for vapor or sublimation pressure: Twin ebulliometer; for Triple point temperature: Adiabatic calorimetry

Compound: c1ccc2c(c1)CCC2 [indane]
- molar entropy (5 K, Crystal 2, Vacuum adiabatic calorimetry): 0.09977 ± 0.017 J/K/mol
- molar entropy (10 K, Crystal 2, Vacuum adiabatic calorimetry): 0.873 ± 0.025 J/K/mol
- molar entropy (20 K, Crystal 2, Vacuum adiabatic calorimetry): 5.878 ± 0.067 J/K/mol
- molar entropy (30 K, Crystal 2, Vacuum adiabatic calorimetry): 13.6 ± 0.12 J/K/mol
- molar entropy (40 K, Crystal 2, Vacuum adiabatic calorimetry): 22.12 ± 0.1 J/K/mol
- molar entropy (50 K, Crystal 2, Vacuum adiabatic calorimetry): 30.71 ± 0.12 J/K/mol
- molar entropy (60 K, Crystal 2, Vacuum adiabatic calorimetry): 39.24 ± 0.14 J/K/mol
- molar entropy (62 K, Crystal 2, Vacuum adiabatic calorimetry): 40.96 ± 0.14 J/K/mol
- molar entropy (64 K, Crystal 2, Vacuum adiabatic calorimetry): 42.68 ± 0.15 J/K/mol
- molar entropy (66 K, Crystal 2, Vacuum adiabatic calorimetry): 44.42 ± 0.15 J/K/mol
- molar entropy (68 K, Crystal 2, Vacuum adiabatic calorimetry): 46.19 ± 0.16 J/K/mol
- molar entropy (70 K, Crystal 2, Vacuum adiabatic calorimetry): 48 ± 0.17 J/K/mol
- molar entropy (72 K, Crystal 2, Vacuum adiabatic calorimetry): 49.85 ± 0.17 J/K/mol
- molar entropy (73.83 K, Crystal 1, Vacuum adiabatic calorimetry): 53.65 ± 0.17 J/K/mol
- molar entropy (73.83 K, Crystal 2, Vacuum adiabatic calorimetry): 51.59 ± 0.17 J/K/mol
- molar entropy (74 K, Crystal 1, Vacuum adiabatic calorimetry): 53.79 ± 0.17 J/K/mol
- molar entropy (76 K, Crystal 1, Vacuum adiabatic calorimetry): 55.33 ± 0.18 J/K/mol
- molar entropy (78 K, Crystal 1, Vacuum adiabatic calorimetry): 56.85 ± 0.18 J/K/mol
- molar entropy (80 K, Crystal 1, Vacuum adiabatic calorimetry): 58.36 ± 0.19 J/K/mol
- molar entropy (90 K, Crystal 1, Vacuum adiabatic calorimetry): 65.61 ± 0.31 J/K/mol
- molar entropy (100 K, Crystal 1, Vacuum adiabatic calorimetry): 72.48 ± 0.32 J/K/mol
- molar entropy (120 K, Crystal 1, Vacuum adiabatic calorimetry): 85.36 ± 0.33 J/K/mol
- molar entropy (140 K, Crystal 1, Vacuum adiabatic calorimetry): 97.4 ± 0.35 J/K/mol
- molar entropy (160 K, Crystal 1, Vacuum adiabatic calorimetry): 108.88 ± 0.37 J/K/mol
- molar entropy (180 K, Crystal 1, Vacuum adiabatic calorimetry): 120 ± 0.38 J/K/mol
- molar entropy (200 K, Crystal 1, Vacuum adiabatic calorimetry): 130.94 ± 0.4 J/K/mol
- molar entropy (220 K, Crystal 1, Vacuum adiabatic calorimetry): 141.81 ± 0.42 J/K/mol
- molar entropy (221.79 K, Crystal 1, Vacuum adiabatic calorimetry): 142.78 ± 0.42 J/K/mol
- molar entropy (221.79 K, Liquid, Vacuum adiabatic calorimetry): 181.35 ± 0.49 J/K/mol
- molar entropy (230 K, Liquid, Vacuum adiabatic calorimetry): 187.35 ± 0.5 J/K/mol
- molar entropy (240 K, Liquid, Vacuum adiabatic calorimetry): 194.49 ± 0.51 J/K/mol
- molar entropy (250 K, Liquid, Vacuum adiabatic calorimetry): 201.46 ± 0.52 J/K/mol
- molar entropy (260 K, Liquid, Vacuum adiabatic calorimetry): 208.28 ± 0.53 J/K/mol
- molar entropy (270 K, Liquid, Vacuum adiabatic calorimetry): 214.98 ± 0.55 J/K/mol
- molar entropy (280 K, Liquid, Vacuum adiabatic calorimetry): 221.57 ± 0.56 J/K/mol
- molar entropy (290 K, Liquid, Vacuum adiabatic calorimetry): 228.06 ± 0.57 J/K/mol
- molar entropy (298.15 K, Liquid, Vacuum adiabatic calorimetry): 233.26 ± 0.57 J/K/mol
- molar entropy (300 K, Liquid, Vacuum adiabatic calorimetry): 234.44 ± 0.58 J/K/mol
- molar entropy (310 K, Liquid, Vacuum adiabatic calorimetry): 240.74 ± 0.59 J/K/mol
- molar entropy (320 K, Liquid, Vacuum adiabatic calorimetry): 246.96 ± 0.6 J/K/mol
- mass density (323.15 K, Liquid): 937.2 ± 1.9 kg/m3
- molar entropy (330 K, Liquid, Vacuum adiabatic calorimetry): 253.13 ± 0.62 J/K/mol
- molar entropy (333.38 K, Liquid, Vacuum adiabatic calorimetry): 255.19 ± 0.62 J/K/mol
- vapor or sublimation pressure (338.12 K, Liquid): 2 ± 0.0078 kPa
- molar entropy (340 K, Liquid, Vacuum adiabatic calorimetry): 259.22 ± 0.62 J/K/mol
- vapor or sublimation pressure (344.12 K, Liquid): 2.666 ± 0.0079 kPa
- mass density (348.15 K, Liquid): 915.6 ± 1.8 kg/m3
- molar entropy (350 K, Liquid, Vacuum adiabatic calorimetry): 265.26 ± 0.63 J/K/mol
- vapor or sublimation pressure (353.03 K, Liquid): 4 ± 0.0079 kPa
- vapor or sublimation pressure (359.69 K, Liquid): 5.333 ± 0.008 kPa
- molar entropy (360 K, Liquid, Vacuum adiabatic calorimetry): 271.24 ± 0.65 J/K/mol
- vapor or sublimation pressure (369.61 K, Liquid): 7.999 ± 0.0082 kPa
- molar entropy (370 K, Liquid, Vacuum adiabatic calorimetry): 277.19 ± 0.66 J/K/mol
- mass density (373.15 K, Liquid): 893.7 ± 1.8 kg/m3
- vapor or sublimation pressure (377.06 K, Liquid): 10.67 ± 0.008 kPa
- molar entropy (380 K, Liquid, Vacuum adiabatic calorimetry): 283.07 ± 0.67 J/K/mol
- vapor or sublimation pressure (383.1 K, Liquid): 13.33 ± 0.009 kPa
- vapor or sublimation pressure (389.37 K, Liquid): 16.66 ± 0.009 kPa
- molar entropy (390 K, Liquid, Vacuum adiabatic calorimetry): 288.92 ± 0.67 J/K/mol
- vapor or sublimation pressure (394.58 K, Liquid): 19.93 ± 0.009 kPa
- mass density (398.15 K, Liquid): 871.2 ± 1.7 kg/m3
- molar entropy (400 K, Liquid, Vacuum adiabatic calorimetry): 294.73 ± 0.69 J/K/mol
- vapor or sublimation pressure (401.44 K, Liquid): 25.02 ± 0.01 kPa and 25.02 ± 0.011 kPa
- vapor or sublimation pressure (408.36 K, Liquid): 31.17 ± 0.011 kPa
- molar entropy (410 K, Liquid, Vacuum adiabatic calorimetry): 300.49 ± 0.7 J/K/mol
- vapor or sublimation pressure (415.33 K, Liquid): 38.56 ± 0.013 kPa
- molar entropy (420 K, Liquid, Vacuum adiabatic calorimetry): 306.23 ± 0.71 J/K/mol
- vapor or sublimation pressure (422.35 K, Liquid): 47.37 ± 0.014 kPa
- mass density (423.15 K, Liquid): 848.5 ± 1.7 kg/m3
- vapor or sublimation pressure (429.42 K, Liquid): 57.81 ± 0.016 kPa
- molar entropy (430 K, Liquid, Vacuum adiabatic calorimetry): 311.92 ± 0.72 J/K/mol
- vapor or sublimation pressure (436.54 K, Liquid): 70.11 ± 0.019 kPa
- molar entropy (440 K, Liquid, Vacuum adiabatic calorimetry): 317.58 ± 0.72 J/K/mol
- vapor or sublimation pressure (443.71 K, Liquid): 84.53 ± 0.021 kPa
- mass density (448.15 K, Liquid): 824.8 ± 1.7 kg/m3
- molar entropy (450 K, Liquid, Small sample (50 mg) DSC): 323.22 ± 7.5 J/K/mol
- vapor or sublimation pressure (450.93 K, Liquid): 101.32 ± 0.03 kPa
- vapor or sublimation pressure (458.2 K, Liquid): 120.78 ± 0.03 kPa
- molar entropy (460 K, Liquid, Small sample (50 mg) DSC): 328.83 ± 7.6 J/K/mol
- vapor or sublimation pressure (465.53 K, Liquid): 143.23 ± 0.03 kPa
- molar entropy (470 K, Liquid, Small sample (50 mg) DSC): 334.43 ± 7.8 J/K/mol
- vapor or sublimation pressure (472.9 K, Liquid): 169 ± 0.03 kPa
- mass density (473.15 K, Liquid): 799.8 ± 1.6 kg/m3
- molar entropy (480 K, Liquid, Small sample (50 mg) DSC): 340.01 ± 7.9 J/K/mol
- vapor or sublimation pressure (480.33 K, Liquid): 198.46 ± 0.04 kPa
- vapor or sublimation pressure (487.8 K, Liquid): 231.99 ± 0.05 kPa
- molar entropy (490 K, Liquid, Small sample (50 mg) DSC): 345.57 ± 8 J/K/mol
- vapor or sublimation pressure (495.33 K, Liquid): 269.98 ± 0.05 kPa
- mass density (498.15 K, Liquid): 774 ± 1.6 kg/m3
- molar entropy (500 K, Liquid, Small sample (50 mg) DSC): 351.1 ± 8.2 J/K/mol
- molar entropy (510 K, Liquid, Small sample (50 mg) DSC): 356.62 ± 8.3 J/K/mol
- molar entropy (520 K, Liquid, Small sample (50 mg) DSC): 362.11 ± 8.4 J/K/mol
- mass density (523.15 K, Liquid): 745.8 ± 1.5 kg/m3
- molar entropy (530 K, Liquid, Small sample (50 mg) DSC): 367.58 ± 8.5 J/K/mol
- molar entropy (540 K, Liquid, Small sample (50 mg) DSC): 373.04 ± 8.7 J/K/mol
- molar entropy (550 K, Liquid, Small sample (50 mg) DSC): 378.48 ± 8.8 J/K/mol
- molar entropy (560 K, Liquid, Small sample (50 mg) DSC): 383.9 ± 8.9 J/K/mol
- molar entropy (570 K, Liquid, Small sample (50 mg) DSC): 389.31 ± 9 J/K/mol
- molar entropy (580 K, Liquid, Small sample (50 mg) DSC): 394.7 ± 9.2 J/K/mol
- molar entropy (590 K, Liquid, Small sample (50 mg) DSC): 400.08 ± 9.3 J/K/mol
- molar entropy (600 K, Liquid, Small sample (50 mg) DSC): 405.43 ± 9.4 J/K/mol
- Triple point temperature (Crystal 1): 221.79 ± 0.039 K
- Triple point temperature (Crystal 2): 73.83 ± 0.04 K
